Test results from patent US20250188040A1, “PHARMACEUTICAL COMPOSITIONS COMPRISING WRN HELICASE INHIBITORS” (Vividion Therapeutics, Inc., priority 2022, published 2025).
“And” between values parts separate entries of the source, which are not always exact repeats. Equal entries are not always repeated. Where two headings read alike, the source gives them in different places.

Key:
SW480 cells = assay: Cell growth assay (CellTiter-Glo 2.0), SW480 MSS cell line; conditions: read-out: Cell Growth Inhibition GI50 SW480
HCT 116 cells = assay: Cell growth assay (CellTiter-Glo 2.0), HCT 116 MSI-H cell line; conditions: read-out: Cell Growth Inhibition GI50 HCT-116
[1] = molecular target: hWRN(519-1227)_C-H3CV-GFP-10His (Homo sapiens, UniProt Q14191); assay: Helicase Assay for WRN Inhibition (ATP-dependent, fluorescence based)
Experimental: Effects of compounds on WRN helicase activity were assessed with the Helicase Assay for WRN Inhibition. This is an ATP-dependent (inclusion of ATP is important and is required for this assay) fluorescence based assay using recombinant WRN and a fluorogenic DNA substrate.
WRN activity was normalized to signal from wells without WRN protein (background, 0% activity) and wells with protein treated only with DMSO (positive control, 10000 activity). For each compound the potency of inhibition (IC50) was determiined using Graphpad Prism.

[2] = HCT-116 (MSI-H), 5-day incubation
[3] = read-out: WRN Helicase IC50, 30 min preincubation with ATP, 30 min reaction
[4] = WRN Helicase IC50, 30 min preincubation with ATP, 30 min reaction

hWRN(519-1227)_C-H3CV-GFP-10His, sequence (Q14191 519-1227): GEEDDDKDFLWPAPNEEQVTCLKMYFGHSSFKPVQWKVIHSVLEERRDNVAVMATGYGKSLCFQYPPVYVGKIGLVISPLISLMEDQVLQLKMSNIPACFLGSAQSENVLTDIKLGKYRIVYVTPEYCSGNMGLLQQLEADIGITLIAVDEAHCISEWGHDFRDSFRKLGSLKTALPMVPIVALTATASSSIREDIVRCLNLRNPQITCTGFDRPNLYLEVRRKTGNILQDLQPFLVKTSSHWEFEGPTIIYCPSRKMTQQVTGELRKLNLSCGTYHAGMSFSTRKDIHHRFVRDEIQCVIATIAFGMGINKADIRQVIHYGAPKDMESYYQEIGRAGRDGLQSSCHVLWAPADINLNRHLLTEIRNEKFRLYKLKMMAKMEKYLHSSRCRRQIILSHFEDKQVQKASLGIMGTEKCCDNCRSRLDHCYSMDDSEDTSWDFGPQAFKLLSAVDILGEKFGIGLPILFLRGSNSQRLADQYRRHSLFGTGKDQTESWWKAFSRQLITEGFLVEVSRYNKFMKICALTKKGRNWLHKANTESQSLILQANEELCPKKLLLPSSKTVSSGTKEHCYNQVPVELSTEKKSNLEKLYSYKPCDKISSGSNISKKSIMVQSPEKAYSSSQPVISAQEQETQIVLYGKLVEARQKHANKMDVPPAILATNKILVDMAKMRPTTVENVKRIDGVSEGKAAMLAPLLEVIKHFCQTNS

GI50 (SW480 cells; Homo sapiens, SW480, 120 h) [µM]	GI50 (HCT 116 cells; Homo sapiens, HCT-116, 120 h) [µM]	IC50 [1] [µM]	IC50 [1, 4] [µM]	Molecule	GI50 (SW480 cells; SW480 (MSS), 5-day incubation)	GI50 (HCT 116 cells; [2]) [µM]	IC50 [1, 3] [µM]
				2-cyclopropyl-4-(((1R,2R)-2-fluorocyclohexyl)oxy)-N—((S,E)-4-(methylsulfonyl)but-3-en-2-yl)pyrimidine-5-carboxamide; or 2-cyclopropyl-4-(((1S,2S)-2-fluorocyclohexyl)oxy)-N—((S,E)-4-(methylsulfonyl)but-3-en-2-yl)pyrimidine-5-carboxamide [Example 149]	> 10 µM	2.5	7.8
6.1	2.5	3.5		CS(=O)(=O)C=CC1CN(C(=O)c2cnc(C3CC3)nc2Oc2ccccc2)C1 (racemic) [Example 22, (2-cyclopropyl-4-phenoxypyrimidin-5-yl)(3-(2-(methylsulfonyl)vinyl)azetidin-1-yl)methanone]			
> 10	8.5	7.2		CC1C(=CC#N)CN1C(=O)c1cnc(C2CC2)nc1Oc1ccccc1 (racemic) [Example 265, 2-(1-(2-cyclopropyl-4-phenoxypyrimidine-5-carbonyl)-2-methylazetidin-3-ylidene)acetonitrile]			
24	0.023			CC(F)(F)c1ncc(C(=O)NC(C=CS(C)(=O)=O)C2CC(F)(F)C2)c(Oc2ccccc2)n1 (single isomer, unassigned) [192/193]			
				C=C(C#N)[C@H](C)NC(=O)c1cnc(C(F)(F)C2CC2)nc1Oc1ccccc1 [275/276, (S)—N-(3-cyanobut-3-en-2-yl)-2-(cyclopropyldifluoromethyl)-4-phenoxypyrimidine-5-carboxamide/(R)—N-(3-cyanobut-3-en-2-yl)-2-(cyclopropyldifluoromethyl)-4-phenoxypyrimidine-5-carboxamide]	10 µM and 9.4 µM		
				C=C(C#N)[C@@H](NC(=O)c1cnc(C(C)(F)F)nc1Oc1ccccc1)C1CC1 [278/279, (S)—N-(2-cyano-1-cyclopropylallyl)-2-(1,1-difluoroethyl)-4-phenoxypyrimidine-5-carboxamide/(R)—N-(2-cyano-1-cyclopropylallyl)-2-(1,1-difluoroethyl)-4-phenoxypyrimidine-5-carboxamide]	11 µM	0.35	
	2.1			CS(=O)(=O)/C=C/CNC(=O)c1cnc(C2CCCC2)nc1Oc1ccccc1 [Example 1, (E)-2-cyclopentyl-N-(3-(methylsulfonyl)allyl)-4-phenoxypyrimidine-5-carboxamide]			
41.4	0.11		0.27	CN(C)C(=O)C[C@@H](/C=C/S(C)(=O)=O)NC(=O)c1cnc(C(C)(C)C)nc1Oc1ccccc1 [Example 71, (S,E)-2-(tert-butyl)-N-(5-(dimethylamino)-1-(methylsulfonyl)-5-oxopent-1-en-3-yl)-4-phenoxypyrimidine-5-carboxamide]			
41.7	0.224			C[C@@H](/C=C/S(C)(=O)=O)NC(=O)c1cnc(C(C)(F)F)nc1Oc1ccccc1 [Example 86, (S,E)-2-(1,1-difluoroethyl)-N-(4-(methylsulfonyl)but-3-en-2-yl)-4-phenoxypyrimidine-5-carboxamide]			
19.2	0.327		0.69	CC(F)(F)c1ncc(C(=O)N[C@H](/C=C/S(C)(=O)=O)CC(F)F)c(Oc2ccccc2)n1 [Example 90, (S,E)-N-(5,5-difluoro-1-(methylsulfonyl)pent-1-en-3-yl)-2-(1,1-difluoroethyl)-4-phenoxypyrimidine-5-carboxamide]			
26.1	0.252		0.6	CC(F)(F)c1ncc(C(=O)N[C@H](/C=C/S(C)(=O)=O)C2CCC(F)(F)CC2)c(Oc2ccccc2)n1 [Example 91, (S,E)-N-(1-(4,4-difluorocyclohexyl)-3-(methylsulfonyl)allyl)-2-(1,1-difluoroethyl)-4-phenoxypyrimidine-5-carboxamide]			
40	0.07		0.22	CC(F)(F)c1ncc(C(=O)N[C@H](/C=C/S(C)(=O)=O)COC2CC2)c(Oc2ccccc2)n1 [Example 97, (R,E)-N-(1-cyclopropoxy-4-(methylsulfonyl)but-3-en-2-yl)-2-(1,1-difluoroethyl)-4-phenoxypyrimidine-5-carboxamide]			
> 10	4.2		3.8	CS(=O)(=O)/C=C/CNC(=O)c1cnc(C2CCCC2)nc1Oc1cccc(F)c1 [Example 111, (E)-2-cyclopentyl-4-(3-fluorophenoxy)-N-(3-(methylsulfonyl)allyl)pyrimidine-5-carboxamide]			
4.8	4.3		4.9	CS(=O)(=O)/C=C/CNC(=O)c1cnc(C2CCCC2)nc1Oc1ccc(Cl)cc1 [Example 120, (E)-4-(4-chlorophenoxy)-2-cyclopentyl-N-(3-(methylsulfonyl)allyl)pyrimidine-5-carboxamide]			
32	0.33		1.9	[2H]c1c([2H])c([2H])c(Oc2nc(C3CC3)ncc2C(=O)N[C@@H](C)/C=C/S(C)(=O)=O)c([2H])c1[2H] [Example 140]			
13	3.4		14	C[C@@H](/C=C/S(C)(=O)=O)NC(=O)c1cnc(C2CC2)nc1OC12CCC(CC1)C2 [Example 143, (S,E)-4-(bicyclo[2.2.1]heptan-1-yloxy)-2-cyclopropyl-N-(4-(methylsulfonyl)but-3-en-2-yl)pyrimidine-5-carboxamide]			
40	0.36		1.5	CC(F)(F)c1ncc(C(=O)N[C@H](/C=C/S(C)(=O)=O)C2CC2)c(O[C@@H]2C[C@@H]3C[C@@H]3C2)n1 [Example 158, 4-(((1R,3r,5S)-bicyclo[3.1.0]hexan-3-yl)oxy)-N—((S,E)-1-cyclopropyl-3-(methylsulfonyl)allyl)-2-(1,1-difluoroethyl)pyrimidine-5-carboxamide]			
				CC(C)(C)c1ncc(C(=O)NC/C=C/S(C)(=O)=O)c(O[C@H]2C[C@@H]3C[C@@H]3C2)n1 [Example 159, 4-(((1R,3s,5S)-bicyclo[3.1.0]hexan-3-yl)oxy)-2-(tert-butyl)-N—((E)-3-(methylsulfonyl)allyl)pyrimidine-5-carboxamide]	12 µM	2.5	6.9
12	0.086		0.37	CN(C)c1ncc(C(=O)N[C@H](/C=C/S(C)(=O)=O)C2CC2)c(Oc2ccccc2)n1 [Example 177, (S,E)-N-(1-cyclopropyl-3-(methylsulfonyl)allyl)-2-(dimethylamino)-4-phenoxypyrimidine-5-carboxamide]			
45	3.2		15	CNc1ncc(C(=O)N[C@H](/C=C/S(C)(=O)=O)C2CC2)c(Oc2ccccc2)n1 [Example 178, (S,E)-N-(1-cyclopropyl-3-(methylsulfonyl)allyl)-2-(methylamino)-4-phenoxypyrimidine-5-carboxamide]			
7	0.198		1.04	CCN(CC)c1ncc(C(=O)N[C@H](/C=C/S(C)(=O)=O)C2CC2)c(Oc2ccccc2)n1 [Example 179, (S,E)-N-(1-cyclopropyl-3-(methylsulfonyl)allyl)-2-(diethylamino)-4-phenoxypyrimidine-5-carboxamide]			
3.4	0.0582		0.439	CN(c1ncc(C(=O)N[C@H](/C=C/S(C)(=O)=O)C2CC2)c(Oc2ccccc2)n1)C1CC1 [Example 180, (S,E)-2-(cyclopropyl(methyl)amino)-N-(1-cyclopropyl-3-(methylsulfonyl)allyl)-4-phenoxypyrimidine-5-carboxamide]			
13	0.013		0.058	[2H]c1c([2H])c([2H])c(Oc2nc(C(F)(F)C3CC3)ncc2C(=O)N[C@H](/C=C/S(C)(=O)=O)C2CC2)c([2H])c1[2H] [Example 229, (S,E)-N-(1-cyclopropyl-3-(methylsulfonyl)allyl)-2-(cyclopropyldifluoromethyl)-4-(phenoxy-d5)pyrimidine-5-carboxamide]			
6.1	0.011		0.056	CS(=O)(=O)/C=C/[C@@H](NC(=O)c1ccc(C(F)(F)C2CC2)nc1Oc1ccccc1)C1CC1 [Example 234, (S,E)-N-(1-cyclopropyl-3-(methylsulfonyl)allyl)-6-(cyclopropyldifluoromethyl)-2-phenoxynicotinamide]			
4.5	0.012		0.042	CS(=O)(=O)/C=C/[C@@H](NC(=O)c1cc(F)c(C(F)(F)C2CC2)nc1Oc1ccccc1)C1CC1 [Example 236, (S,E)-N-(1-cyclopropyl-3-(methylsulfonyl)allyl)-6-(cyclopropyldifluoromethyl)-5-fluoro-2-phenoxynicotinamide]			
> 10	8.4		12	CSc1ncc(C(=O)NC/C=C/S(C)(=O)=O)c(Oc2ccccc2)n1 [Example 241, (E)-N-(3-(methylsulfonyl)allyl)-2-(methylthio)-4-phenoxypyrimidine-5-carboxamide]			
> 10	2.8		9.8	C[C@@H](/C=C/S(C)(=O)=O)NC(=O)c1cc2ccccc2nc1Oc1ccccc1 [Example 242, (S,E)-N-(4-(methylsulfonyl)but-3-en-2-yl)-2-phenoxyquinoline-3-carboxamide]			
				C=C(C#N)[C@H](C)NC(=O)c1cnc(C(C)(F)F)nc1Oc1ccccc1 [Example 273/274, (S)—N-(3-cyanobut-3-en-2-yl)-2-(1,1-difluoroethyl)-4-phenoxypyrimidine-5-carboxamide/(R)—N-(3-cyanobut-3-en-2-yl)-2-(1,1-difluoroethyl)-4-phenoxypyrimidine-5-carboxamide]	16 µM	0.122	
